PubChem BioAssay (NCI)
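Where inhibition never reached the appropriate level, the endpoint shown equals the highest concentration tested. Otherwise, values were interpolated linearly from a five-concentration, 48-hour dose response in 96-well plates. At the TGI there is no net growth.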

Key:
Assay in all cases: NCI anticancer screen, dose series, 48 h
CAKI-1 renal = tested on: CAKI-1 renal
NCI-H226 lung = tested on: NCI-H226 lung
HCC-2998 colon = tested on: HCC-2998 colon
786-0 renal = tested on: 786-0 renal
SN12C renal = tested on: SN12C renal
UO-31 renal = tested on: UO-31 renal
SK-MEL-5 melanoma = tested on: SK-MEL-5 melanoma
SW-620 colon = tested on: SW-620 colon
LOX IMVI melanoma = tested on: LOX IMVI melanoma
A498 renal = tested on: A498 renal
PC-3 prostate = tested on: PC-3 prostate
HT29 colon = tested on: HT29 colon
KM12 colon = tested on: KM12 colon
MDA-MB-435 = tested on: MDA-MB-435
NCI/ADR-RES ovarian = tested on: NCI/ADR-RES ovarian
T-47D breast = tested on: T-47D breast
UACC-62 melanoma = tested on: UACC-62 melanoma
SNB-75 CNS = tested on: SNB-75 CNS
HOP-62 NSCLC = tested on: HOP-62 NSCLC
HCT-116 colon = tested on: HCT-116 colon
SK-MEL-2 melanoma = tested on: SK-MEL-2 melanoma
SF-295 CNS = tested on: SF-295 CNS
NCI-H23 lung = tested on: NCI-H23 lung
UACC-257 melanoma = tested on: UACC-257 melanoma
ACHN renal = tested on: ACHN renal
MALME-3M melanoma = tested on: MALME-3M melanoma
M14 melanoma = tested on: M14 melanoma
MOLT-4 leukemia = tested on: MOLT-4 leukemia
HOP-92 NSCLC = tested on: HOP-92 NSCLC
IGROV1 ovarian = tested on: IGROV1 ovarian
NCI-H460 lung = tested on: NCI-H460 lung
SNB-19 CNS = tested on: SNB-19 CNS
DU-145 prostate = tested on: DU-145 prostate
RPMI-8226 leukemia = tested on: RPMI-8226 leukemia
HL-60(TB) leukemia = tested on: HL-60(TB) leukemia
MDA-N = tested on: MDA-N
SR leukemia = tested on: SR leukemia
SF-268 CNS = tested on: SF-268 CNS
SF-539 CNS = tested on: SF-539 CNS
HCT-15 colon = tested on: HCT-15 colon
TK-10 renal = tested on: TK-10 renal
SK-MEL-28 melanoma = tested on: SK-MEL-28 melanoma
NCI-H522 lung = tested on: NCI-H522 lung
OVCAR-5 ovarian = tested on: OVCAR-5 ovarian
MDA-MB-231 breast = tested on: MDA-MB-231 breast
SK-OV-3 ovarian = tested on: SK-OV-3 ovarian
A549 NSCLC = tested on: A549 NSCLC
OVCAR-8 ovarian = tested on: OVCAR-8 ovarian
HS 578T breast = tested on: HS 578T breast
CCRF-CEM leukemia = tested on: CCRF-CEM leukemia
RXF 393 renal = tested on: RXF 393 renal
U251 CNS = tested on: U251 CNS
MCF7 breast = tested on: MCF7 breast
OVCAR-4 ovarian = tested on: OVCAR-4 ovarian

CCN(CCCl)c1ccc(NC(=O)c2cc(C(=O)NCCN(C)C)cc(C(=O)Nc3ccc(N(CC)CCCl)cc3)c2)cc1
TGI (CAKI-1 renal): > 100 µM
TGI (NCI-H226 lung): 25.1 µM
TGI (HCC-2998 colon): 35 µM
TGI (786-0 renal): 3.12 µM
TGI (SN12C renal): 21 µM
TGI (UO-31 renal): > 100 µM
TGI (SK-MEL-5 melanoma): 30.7 µM
TGI (SW-620 colon): 18 µM
TGI (LOX IMVI melanoma): 12.8 µM
TGI (A498 renal): 43.1 µM
TGI (PC-3 prostate): 16.3 µM
TGI (HT29 colon): 11.8 µM
TGI (KM12 colon): 25.4 µM
TGI (MDA-MB-435): 33.9 µM
TGI (NCI/ADR-RES ovarian): > 100 µM
TGI (T-47D breast): 53.9 µM
TGI (UACC-62 melanoma): 27.5 µM
TGI (SNB-75 CNS): 69.6 µM
TGI (HOP-62 NSCLC): 16.4 µM
TGI (HCT-116 colon): 22.3 µM
TGI (SK-MEL-2 melanoma): 44.1 µM
TGI (SF-295 CNS): 72.3 µM
TGI (NCI-H23 lung): 23.5 µM
TGI (UACC-257 melanoma): 65.6 µM
TGI (ACHN renal): 21.3 µM
TGI (MALME-3M melanoma): 34.5 µM
TGI (M14 melanoma): 28.2 µM
TGI (MOLT-4 leukemia): 5.99 µM
TGI (HOP-92 NSCLC): 29.8 µM
TGI (IGROV1 ovarian): 29.1 µM
TGI (NCI-H460 lung): 28 µM
TGI (SNB-19 CNS): 19.9 µM
TGI (DU-145 prostate): 39.2 µM
TGI (RPMI-8226 leukemia): 23.6 µM
TGI (HL-60(TB) leukemia): 3.19 µM
TGI (MDA-N): 29.6 µM
TGI (SR leukemia): > 100 µM
TGI (SF-268 CNS): 61.2 µM
TGI (SF-539 CNS): 12.3 µM
TGI (HCT-15 colon): > 100 µM
TGI (TK-10 renal): 38 µM
TGI (SK-MEL-28 melanoma): 41.4 µM
TGI (NCI-H522 lung): 11.4 µM
TGI (OVCAR-5 ovarian): 87.1 µM
TGI (MDA-MB-231 breast): 34.9 µM
TGI (SK-OV-3 ovarian): 19.5 µM
TGI (A549 NSCLC): 25.7 µM
TGI (OVCAR-8 ovarian): 25.2 µM
TGI (HS 578T breast): 12.4 µM
TGI (CCRF-CEM leukemia): 3.27 µM
TGI (RXF 393 renal): 30.8 µM
TGI (U251 CNS): 22.1 µM
TGI (MCF7 breast): 19.6 µM
TGI (OVCAR-4 ovarian): 43.5 µM
